The CheMixHub viscosity set
± gives the uncertainty stated by the source.

Experiment: xn = mol fraction of the nth substance listed

CCNc1ccccc1 + Brc1ccccc1
viscosity [mPa·s], 101 kPa
Conditions | 303.15 K | 308.15 K
x1 = 0.0714 | 1.056 ± 0.012 | 0.995 ± 0.012
x1 = 0.1264 | 1.092 ± 0.012 | 1.023 ± 0.012
x1 = 0.1965 | 1.139 ± 0.013 | 1.06 ± 0.012
x1 = 0.2605 | 1.183 ± 0.013 | 1.095 ± 0.013
x1 = 0.3365 | 1.237 ± 0.013 | 1.137 ± 0.013
x1 = 0.3956 | 1.28 ± 0.013 | 1.171 ± 0.013
x1 = 0.4958 | 1.352 ± 0.014 | 1.229 ± 0.013
x1 = 0.5606 | 1.399 ± 0.014 | 1.268 ± 0.014
x1 = 0.6429 | 1.46 ± 0.014 | 1.319 ± 0.014
x1 = 0.7152 | 1.514 ± 0.015 | 1.364 ± 0.014
x1 = 0.7825 | 1.565 ± 0.015 | 1.407 ± 0.015
x1 = 0.8628 | 1.628 ± 0.015 | 1.46 ± 0.015
x1 = 0.9205 | 1.675 ± 0.016 | 1.499 ± 0.015

C1CCCCCC1 + C1CCCCC1
303.15 K, 101 kPa
Conditions | viscosity [mPa·s]
x2 = 0.1425 | 1.16 ± 0.0071
x2 = 0.2998 | 1.085 ± 0.0067
x2 = 0.4978 | 1.003 ± 0.0062
x2 = 0.6947 | 0.9296 ± 0.0058
x2 = 0.8482 | 0.8767 ± 0.0056

CC(=O)O + C1CCCCC1
303.15 K, 101 kPa
Conditions | viscosity [mPa·s]
x2 = 0.09517 | 0.8375 ± 0.0099
x2 = 0.1912 | 0.747 ± 0.0089
x2 = 0.2978 | 0.6933 ± 0.0083
x2 = 0.5005 | 0.6661 ± 0.008
x2 = 0.5952 | 0.6798 ± 0.0081
x2 = 0.6982 | 0.6567 ± 0.0079
x2 = 0.8007 | 0.6847 ± 0.0082
x2 = 0.9035 | 0.7306 ± 0.0087

CC(=O)O + C1CCOC1
298.15 K, 101 kPa
Conditions | viscosity [mPa·s]
x2 = 0.0847 | 1.112 ± 0.0094
x2 = 0.1723 | 1.087 ± 0.0092
x2 = 0.263 | 1.04 ± 0.0088
x2 = 0.357 | 0.9739 ± 0.0082
x2 = 0.4544 | 0.8952 ± 0.0076
x2 = 0.5554 | 0.8054 ± 0.0069
x2 = 0.6602 | 0.7083 ± 0.0061
x2 = 0.7691 | 0.6103 ± 0.0053
x2 = 0.8823 | 0.5294 ± 0.0046

ClCCCl + C1CCOC1
303.15 K, 101 kPa
Conditions | viscosity [mPa·s]
x2 = 0.0815 | 0.7038 ± 0.0058
x2 = 0.1436 | 0.6852 ± 0.0056
x2 = 0.2414 | 0.6571 ± 0.0054
x2 = 0.3055 | 0.6394 ± 0.0053
x2 = 0.4137 | 0.6105 ± 0.0051
x2 = 0.5015 | 0.5879 ± 0.0049
x2 = 0.6095 | 0.5606 ± 0.0047
x2 = 0.7289 | 0.5307 ± 0.0045
x2 = 0.8142 | 0.5097 ± 0.0044
x2 = 0.9176 | 0.485 ± 0.0042

ClCCl + C1CCOC1
298 K, 101 kPa
Conditions | viscosity [mPa·s]
x1 = 0.0981 | 0.455 ± 0.015
x1 = 0.2079 | 0.454 ± 0.015
x1 = 0.3064 | 0.453 ± 0.015
x1 = 0.3509 | 0.452 ± 0.015
x1 = 0.4032 | 0.451 ± 0.015
x1 = 0.4519 | 0.45 ± 0.015
x1 = 0.4994 | 0.449 ± 0.015
x1 = 0.5531 | 0.447 ± 0.015
x1 = 0.5994 | 0.445 ± 0.015
x1 = 0.6477 | 0.443 ± 0.015
x1 = 0.6696 | 0.441 ± 0.015
x1 = 0.7756 | 0.437 ± 0.015
x1 = 0.7999 | 0.435 ± 0.015
x1 = 0.9011 | 0.428 ± 0.015

ClCCCl + C1COCCO1
303.15 K, 101.33 kPa
Conditions | viscosity [mPa·s]
x2 = 0.0462 | 0.7468 ± 0.0055
x2 = 0.1984 | 0.7909 ± 0.0058
x2 = 0.2786 | 0.8101 ± 0.0059
x2 = 0.3663 | 0.8307 ± 0.006
x2 = 0.4515 | 0.8512 ± 0.0062
x2 = 0.567 | 0.8832 ± 0.0064
x2 = 0.6362 | 0.9068 ± 0.0066
x2 = 0.7673 | 0.9595 ± 0.0069
x2 = 0.8428 | 0.996 ± 0.0072
x2 = 0.9185 | 1.037 ± 0.0075

ClCCl + C1COCCO1
viscosity [mPa·s], 101 kPa
Conditions | x1 = 0.117 | x1 = 0.1716 | x1 = 0.2883 | x1 = 0.4089 | x1 = 0.4973 | x1 = 0.5905 | x1 = 0.7057 | x1 = 0.7928 | x1 = 0.902
293.15 K | 1.112 ± 0.011 | 1.045 ± 0.01 | 0.946 ± 0.009 | 0.841 ± 0.008 | 0.76 ± 0.008 | 0.691 ± 0.007 | 0.612 ± 0.006 | 0.553 ± 0.006 | 0.485 ± 0.005
298.15 K | 1.027 ± 0.01 | 0.97 ± 0.01 | 0.882 ± 0.009 | 0.786 ± 0.008 | 0.713 ± 0.007 | 0.654 ± 0.007 | 0.579 ± 0.006 | 0.525 ± 0.005 | 0.46 ± 0.005

CC(=O)O + CC#N
viscosity [mPa·s], 101 kPa
Conditions | x1 = 0.0924 | x1 = 0.1864 | x1 = 0.282 | x1 = 0.3793 | x1 = 0.4782 | x1 = 0.5789 | x1 = 0.6814 | x1 = 0.7857 | x1 = 0.8919
298.15 K | 0.3742 ± 0.022 | 0.4162 ± 0.023 | 0.4785 ± 0.024 | 0.558 ± 0.025 | 0.6509 ± 0.026 | 0.7533 ± 0.028 | 0.8608 ± 0.03 | 0.9682 ± 0.032 | 1.07 ± 0.034
308.15 K | 0.3267 ± 0.022 | 0.3622 ± 0.022 | 0.4177 ± 0.023 | 0.4891 ± 0.024 | 0.5719 ± 0.025 | 0.6612 ± 0.026 | 0.7513 ± 0.028 | 0.8362 ± 0.029 | 0.9088 ± 0.031
318.15 K | 0.2808 ± 0.021 | 0.3168 ± 0.022 | 0.3759 ± 0.022 | 0.4515 ± 0.023 | 0.5363 ± 0.024 | 0.6224 ± 0.026 | 0.7005 ± 0.027 | 0.7609 ± 0.028 | 0.7925 ± 0.029

ClCCCl + CC#N
101.33 kPa
Conditions | viscosity [mPa·s]
298 K, x2 = 0.0717 | 0.754 ± 0.01
298 K, x2 = 0.1909 | 0.698 ± 0.01
298 K, x2 = 0.2938 | 0.65 ± 0.009
298 K, x2 = 0.3884 | 0.607 ± 0.009
298 K, x2 = 0.4948 | 0.558 ± 0.008
298 K, x2 = 0.5896 | 0.515 ± 0.008
298 K, x2 = 0.6957 | 0.468 ± 0.008
298 K, x2 = 0.7981 | 0.425 ± 0.007
298 K, x2 = 0.8955 | 0.385 ± 0.007
303.15 K, x2 = 0.113 | 0.674 ± 0.0084
303.15 K, x2 = 0.1744 | 0.6458 ± 0.0082
303.15 K, x2 = 0.2643 | 0.6069 ± 0.0079
303.15 K, x2 = 0.3563 | 0.5679 ± 0.0075
303.15 K, x2 = 0.4072 | 0.5471 ± 0.0074
303.15 K, x2 = 0.543 | 0.4921 ± 0.0069
303.15 K, x2 = 0.6825 | 0.4372 ± 0.0065
303.15 K, x2 = 0.8073 | 0.3903 ± 0.0061
303.15 K, x2 = 0.8792 | 0.3647 ± 0.0059
303.15 K, x2 = 0.9181 | 0.3513 ± 0.0058

CCNc1ccccc1 + CC(=O)c1ccccc1
303.15 K, 100 kPa
Conditions | viscosity [mPa·s]
x1 = 0.0651 | 1.524 ± 0.02
x1 = 0.1424 | 1.538 ± 0.02
x1 = 0.2225 | 1.554 ± 0.02
x1 = 0.2977 | 1.568 ± 0.02
x1 = 0.3611 | 1.581 ± 0.021
x1 = 0.4487 | 1.599 ± 0.021
x1 = 0.5162 | 1.614 ± 0.021
x1 = 0.5869 | 1.631 ± 0.021
x1 = 0.6407 | 1.644 ± 0.021
x1 = 0.7083 | 1.662 ± 0.021
x1 = 0.7798 | 1.681 ± 0.022
x1 = 0.8256 | 1.694 ± 0.022
x1 = 0.9025 | 1.715 ± 0.022

ClCCl + CC(=O)c1ccccc1
298.15 K, 101 kPa
Conditions | viscosity [mPa·s]
x2 = 0.0728 | 0.5046 ± 0.028
x2 = 0.1501 | 0.5598 ± 0.031
x2 = 0.2324 | 0.6209 ± 0.033
x2 = 0.3201 | 0.6967 ± 0.037
x2 = 0.4139 | 0.7804 ± 0.04
x2 = 0.5144 | 0.8931 ± 0.045
x2 = 0.6224 | 1.036 ± 0.052
x2 = 0.7386 | 1.212 ± 0.059
x2 = 0.8641 | 1.422 ± 0.069

CCC(C)Br (centres undefined) + CC(C)(C)O
viscosity [mPa·s], 101.3 kPa
Conditions | x1 = 0.05 | x1 = 0.102 | x1 = 0.2043 | x1 = 0.3044 | x1 = 0.4041 | x1 = 0.5032 | x1 = 0.6203 | x1 = 0.7036 | x1 = 0.8056 | x1 = 0.9064
298.15 K | 3.175 ± 0.028 | 2.363 ± 0.022 | 1.519 ± 0.013 | 1.152 ± 0.0095 | 0.9576 ± 0.0077 | 0.8183 ± 0.0066 | 0.7087 ± 0.0058 | 0.6532 ± 0.0054 | 0.6048 ± 0.0051 | 0.5718 ± 0.0049
313.15 K | 1.651 ± 0.023 | 1.36 ± 0.016 | 0.9969 ± 0.0092 | 0.8102 ± 0.0071 | 0.7146 ± 0.0062 | 0.6337 ± 0.0054 | 0.5665 ± 0.0048 | 0.5317 ± 0.0046 | 0.4987 ± 0.0044 | 0.4777 ± 0.0042

CCNc1ccccc1 + CC(C)(C)O
viscosity [mPa·s], 101 kPa
Conditions | 303.15 K | 308.15 K
x1 = 0.0789 | 3.287 ± 0.037 | 2.6 ± 0.034
x1 = 0.1325 | 3.222 ± 0.036 | 2.566 ± 0.033
x1 = 0.1974 | 3.139 ± 0.034 | 2.522 ± 0.032
x1 = 0.2562 | 3.061 ± 0.033 | 2.478 ± 0.03
x1 = 0.3315 | 2.957 ± 0.031 | 2.414 ± 0.029
x1 = 0.4056 | 2.848 ± 0.03 | 2.343 ± 0.027
x1 = 0.4868 | 2.717 ± 0.028 | 2.256 ± 0.025
x1 = 0.5626 | 2.59 ± 0.026 | 2.167 ± 0.024
x1 = 0.6195 | 2.488 ± 0.025 | 2.096 ± 0.023
x1 = 0.6889 | 2.359 ± 0.023 | 2.003 ± 0.021
x1 = 0.7514 | 2.241 ± 0.022 | 1.916 ± 0.02
x1 = 0.8214 | 2.102 ± 0.02 | 1.815 ± 0.018
x1 = 0.8914 | 1.96 ± 0.018 | 1.71 ± 0.017
